From patent US11827677B2, “Antimicrobial peptide ID13, preparation method and use thereof” (Feed Research Institute, Chinese Academy of Agricultural …, priority 2019, dated 2023)
Where “and” joins values, the source holds several entries; their conditions need not be identical. Equal entries are not always repeated. Where two headings read alike, the source gives them in different places. Bridge positions count the residues as written; N and C are the ends. Peptide text beside a SMILES is read from it.

Columns and labels:
MRSA ATCC 43300 = details: cited from earlier work
[1] = system: Staphylococcus aureus ATCC 43300; experiment: MIC by trace broth dilution method; assay type: cell-based; details: 16-18 h
Procedure: (§1) The minimum inhibition concentration (MIC) of ID13 against pathogens was measured using a trace broth dilution method. The freeze-dried powder of antimicrobial peptide ID13 obtained in Example 6 was used to prepare a solution of antimicrobial peptide ID13 with a concentration of 1280 μg/mL and a solution of vancomycin, respectively with sterile normal saline, and diluted with a two-fold ratio to a final concentration of 1.25 μg/mL. The antimicrobial peptide ID13 solutions and vancomycin solutions of different concentrations were added to a sterile 96-well cell culture plate, with 10 μL per well, three parallels for each sample, and the same amount (10 μL) of sterile saline was used as a negative control, to prepare MIC plates. Strains were cultured in MH liquid medium with shaking at 37° C. until its OD600 nm=0.4 and diluted to 1×10^5 CFU/ml. 90 μL of cell suspension was added into each well of the prepared sample well of the MIC plate and incubated at 37° C. for 16-18 h.

[2] = system: Streptococcus suis CVCC 3928; experiment: MIC by trace broth dilution method; assay type: cell-based; details: 16-18 h
Procedure: as §1

[3] = system: Staphylococcus aureus CVCC 546; experiment: MIC by trace broth dilution method; assay type: cell-based; details: 16-18 h
Procedure: as §1

Gram-positive bacteria = experiment: Antimicrobial activity (MIC) summary over tested strains; assay type: cell-based; details: range over the tested Gram-positive strains
Procedure: as §1

[4] = system: Staphylococcus Epidermidis ATCC 12228; experiment: MIC by trace broth dilution method; assay type: cell-based
Procedure: as §1

[5] = system: Streptococcus pneumoniae CVCC 2350; experiment: MIC by trace broth dilution method; assay type: cell-based
Procedure: as §1

RAW264.7 cells = experiment: Cytotoxicity assay (MTT); assay type: cell-based; details: 256 μg/mL, 24 hours incubation
Procedure: The RAW264.7 cells were cultured in DMEM complete medium with 37° C., 5% CO2 and saturated humidity conditions. The cells were pipetted and re-suspended in DMEM complete medium. Then, the cells were seeded in a 96-well plate at a density of 2.5×10^5 cells/mL, 100 μL per well, and 3 replicates were set. After 24 h, the medium was removed, and 100 μL of 1, 2, 4, 8, 16, 32, 64, 128, and 256 μg/mL ID13 were added to each well according to a concentration gradient. Control wells were added with the same amount of PBS solution. After 24 hours incubation, the medium was removed; the wells were washed twice with PBS, and 100 μL of MTT at a concentration of 5 mg/mL was added to each well (which were operated in dark). The 96-well plate was moved to an incubator and continued to be incubated for 4 h. After discarding the MTT solution, 150 μL DMSO was added into each well, and then the plate was cultured with shaking for 10 minutes. When crystals at the well bottom were completely dissolved, the absorbance values were measured at a wavelength of 570 nm. The cell survival rate was calculated according to the following formula: survival rate (%)=OD value of the treatment group/OD value of the control group×100% (Jiao et al., 2015).

mice red blood cells = experiment: Hemolysis assay; assay type: cell-based, ICR mice; details: concentration of 1-256 μg/mL; 37° C., 1 h
Procedure: The freeze-dried powder of antimicrobial peptide ID13 obtained in Example 6 was used for the test. The antimicrobial peptide ID13 was dissolved in sterile physiological saline to prepare a stock solution of a concentration of 512 μg/mL, and diluted with a 2-fold ratio to a final concentration of 2 μg/mL. The blood from the eyeballs of 6-week-old SPF female ICR mice was taken and collected with a heparin sodium anticoagulation tube. The collected blood was centrifuged at 4° C., 1500 rpm for 10 min. The red blood cells were washed three times with 10 mM PBS (pH 7.3) until the supernatant was colorless and transparent, and an 8% red blood cell suspension was prepared. 100 μL of the red blood cell suspension and antimicrobial peptide ID13 solution were added to 96-well plate, incubated at 37° C. for 1 h, and centrifuged at 1500 rpm for 5 min. The resulted supernatant was transferred to ELISA plate to detect the UV absorbance at 540 nm. Values of 0% and 100% hemolysis control tests were set up with physiological saline and 0.1% TRITON X-100 detergent, respectively. The formula for calculating the degree of hemolysis was as follows (Jung, Park, etc., 2007): Hemolysis (%)=[(Abs540 nm antimicrobial peptide ID13—Abs540 nm physiological saline)/(Abs540 nm 0.1% TRITON X-100 detergent—Abs540 nm physiological saline)]×100%.

CC[C@H](C)[C@@H]1NC(=O)[C@@H]2CSSC[C@@H](C(=O)N[C@@H](CCCNC(=N)N)C(=O)N[C@@H](CCCCN)C(=O)O)NC(=O)[C@H](CC(N)=O)NC(=O)[C@@H]3CSSC[C@H](NC(=O)[C@H](C)NC(=O)[C@H](C)NC(=O)[C@H](Cc4c[nH]cn4)NC(=O)CNC(=O)[C@H](C(C)C)NC(=O)[C@H](CCCCN)NC(=O)[C@H](Cc4ccccc4)NC(=O)[C@@H]4CCCN4C(=O)[C@H](CO)NC(=O)[C@H](CC(C)C)NC(=O)[C@H](CC(C)C)NC(=O)[C@H](CC(=O)O)NC(=O)[C@@H](NC(=O)[C@@H](NC(=O)[C@H](C)N)[C@@H](C)O)CSSC[C@H](NC(=O)[C@H](Cc4c[nH]c5ccccc45)NC(=O)CNC(=O)CNC(=O)[C@H](CCCNC(=N)N)NC(=O)[C@H](CCCCN)NC(=O)CNC(=O)[C@H](CCCNC(=N)N)NC(=O)[C@H](C)NC1=O)C(=O)N[C@@H](CC(=O)O)C(=O)N[C@@H](CCCCN)C(=O)N[C@@H](CCCNC(=N)N)C(=O)N[C@@H](C)C(=O)N[C@@H](C(C)C)C(=O)N3)C(=O)N[C@@H](C)C(=O)N[C@@H](C)C(=O)N[C@@H](Cc1c[nH]cn1)C(=O)N2 [DLP4] (H-ATCDLLSPFKVGHAACAAHCIARGKRGGWCDKRAVCNCRK-OH; disulfide 3-30, 16-36, 20-38; N-terminus and C-terminus assumed)
drug tolerance such as increased MIC (MRSA ATCC 43300; MRSA ATCC 43300 continuously passaged for 30 days under the effective dose): no drug tolerance | MIC ([1]; 37° C.): 16 µg/mL | MIC ([2]; 37° C.): 16 µg/mL | MIC ([3]; 37° C.): 16 µg/mL

CC[C@H](C)[C@@H]1NC(=O)[C@@H]2CSSC[C@@H](C(=O)N[C@@H](CCCNC(=N)N)C(=O)N[C@@H](CCCCN)C(=O)O)NC(=O)[C@H](CC(N)=O)NC(=O)[C@@H]3CSSC[C@H](NC(=O)[C@H](C)NC(=O)[C@H](C)NC(=O)[C@H](Cc4c[nH]cn4)NC(=O)CNC(=O)[C@H](C(C)C)NC(=O)[C@H](CCCCN)NC(=O)[C@H](Cc4ccccc4)NC(=O)[C@@H]4CCCN4C(=O)[C@H](CO)NC(=O)[C@H](CC(C)C)NC(=O)[C@H](CC(C)C)NC(=O)[C@H](CC(=O)O)NC(=O)[C@@H](NC(=O)[C@@H](NC(=O)[C@H](C)N)[C@@H](C)O)CSSC[C@H](NC(=O)[C@H](Cc4c[nH]c5ccccc45)NC(=O)CNC(=O)CNC(=O)[C@H](CCCNC(=N)N)NC(=O)[C@H](CCCCN)NC(=O)CNC(=O)[C@H](CCCNC(=N)N)NC(=O)[C@H](C)NC1=O)C(=O)N[C@@H](CC(=O)O)C(=O)NCC(=O)N[C@@H](CCCNC(=N)N)C(=O)N[C@@H](C)C(=O)N[C@@H](C(C)C)C(=O)N3)C(=O)N[C@@H](C)C(=O)N[C@@H](C)C(=O)N[C@@H](Cc1c[nH]cn1)C(=O)N2 [ID13] (H-ATCDLLSPFKVGHAACAAHCIARGKRGGWCDGRAVCNCRK-OH; disulfide 3-30, 16-36, 20-38 (inferred); N-terminus and C-terminus assumed)
antimicrobial activity against Gram-positive bacteria (MIC range) (Gram-positive bacteria): 0.95 to 1.91 µM | MIC ([1]; 37° C.): 4 µg/mL | MIC ([1]; 37° C., read-out: MIC): 0.95 µM | MIC ([4]; Staphylococcus Epidermidis ATCC 12228, 37° C., 16-18 h): 1.91 μM and 8 μg/mL | MIC ([2]; 37° C.): 4 µg/mL | MIC ([2]; 37° C., read-out: MIC): 0.95 µM | MIC ([3]; 37° C.): 4 µg/mL | MIC ([3]; 37° C., read-out: MIC): 0.95 µM | MIC ([5]; Streptococcus pneumoniae CVCC 2350, 37° C., 16-18 h): 0.95 μM and 4 μg/mL | cell survival rate (RAW264.7 cells): 72% | hemolysis to mice red blood cells (mice red blood cells): little hemolysis

CN[C@H](CC(C)C)C(=O)N[C@H]1C(=O)N[C@@H](CC(N)=O)C(=O)N[C@H]2C(=O)N[C@H]3C(=O)N[C@H](C(=O)N[C@H](C(=O)O)c4cc(O)cc(O)c4-c4cc3ccc4O)[C@H](O)c3ccc(c(Cl)c3)Oc3cc2cc(c3O[C@@H]2O[C@H](CO)[C@@H](O)[C@H](O)[C@H]2O[C@H]2C[C@](C)(N)[C@H](O)[C@H](C)O2)Oc2ccc(cc2Cl)[C@H]1O [Vancomycin]
MIC ([1]; ATCC43300, 37° C., read-out: MIC): 0.67 µM and 1 µg/mL | MIC ([4]; Staphylococcus epidermidis, ATCC12228): 0.67 µM and 1 µg/mL | MIC ([2]; CVCC3928, 37° C., read-out: MIC): 0.17 µM and 0.25 µg/mL | MIC ([3]; CVCC546, 37° C., read-out: MIC): 0.67 µM and 1 µg/mL | MIC ([5]; Streptococcus pneumoniae, CVCC2350): 0.34 µM and 0.5 µg/mL

CO/N=C(\C(=O)N[C@@H]1C(=O)N2C(C(=O)O)=C(CSc3nc(=O)c(=O)[nH]n3C)CS[C@H]12)c1csc(N)n1 [ceftriaxone]
increase of MIC value (MRSA ATCC 43300; MRSA ATCC 43300 continuously passaged for 30 days): 256 times
